From patent US20250250230A1, “HETEROCYCLIC COMPOUND” (TAKEDA PHARMACEUTICAL COMPANY LIMITED, priority 2022, published 2025)

target: T1, human orexin type 2 receptor (Homo sapiens, UniProt O43614); assay: Measurement of orexin type 2 receptor agonist activity (calcium fluorescence, Fluo-4 AM, FDSS); assay type: cell-based; settings: test compound 3 μM; CHO cells expressing human OX2 receptor; DMSO = 0%, orexin A (human) = 100%
T1 construct: expressed in transfected cells
T1 sequence (O43614 1-444): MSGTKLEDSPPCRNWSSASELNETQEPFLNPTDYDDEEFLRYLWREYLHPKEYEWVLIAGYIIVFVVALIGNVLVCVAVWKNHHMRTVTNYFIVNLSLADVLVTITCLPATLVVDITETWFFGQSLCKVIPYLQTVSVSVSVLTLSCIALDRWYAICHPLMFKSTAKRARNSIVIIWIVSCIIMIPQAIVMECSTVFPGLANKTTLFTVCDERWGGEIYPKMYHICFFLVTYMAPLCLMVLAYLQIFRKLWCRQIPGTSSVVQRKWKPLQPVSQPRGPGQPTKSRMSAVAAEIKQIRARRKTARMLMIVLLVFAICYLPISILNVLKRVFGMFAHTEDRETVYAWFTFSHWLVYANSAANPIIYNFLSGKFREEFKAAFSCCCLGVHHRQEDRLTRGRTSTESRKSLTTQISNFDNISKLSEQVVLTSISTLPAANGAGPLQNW
Procedure, shortened: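 CHO-K1 cells stably expressing human OX2R were loaded with Fluo-4 AM (30 min 37 °C, 30 min RT) in HEPES-buffered HBSS with 0.1% BSA and probenecid. Calcium fluorescence was followed on FDSS for 2 min after compound addition; activity normalised to DMSO (0%) and 10 nM orexin A (100%).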

SMILES	OX2R agonist activity (3 μM, %) [%]
CS(=O)(=O)NC1CCCN(C(=O)C2CC2c2ccc(F)cc2-c2ccccc2)CC1 (racemic) [Example 87, a mixture of rac-N-{(4R)-1-[(1R,2R)-2-(5-fluoro[1,1′-biphenyl]-2-yl)cyclopropane-1-carbonyl]azepan-4-yl}methanesulfonamide and rac-N-{(4S)-1-[(1R,2R)-2-(5-fluoro[1,1′-biphenyl]-2-yl)cyclopropane-1-carbonyl]azepan-4-yl}methanesulfonamide]	81
CS(=O)(=O)NC1CCCN(C(=O)C2CC2c2cc(F)ccc2-c2c(F)cccc2F)CC1 (racemic) [Example 96, a mixture of rac-N-{(4R)-1-[(1R,2R)-2-(2′,4,6′-trifluoro[1,1′-biphenyl]-2-yl)cyclopropane-1-carbonyl]azepan-4-yl}methanesulfonamide and rac-N-{(4S)-1-[(1R,2R)-2-(2′,4,6′-trifluoro[1,1′-biphenyl]-2-yl)cyclopropane-1-carbonyl]azepan-4-yl}methanesulfonamide]	62
CS(=O)(=O)NC1CCCN(C(=O)C2CC2c2cc(F)ccc2-c2c(F)cccc2F)C1 (racemic) [Example 98, a mixture of rac-N-{(3R)-1-[(1R,2R)-2-(2′,4,6′-trifluoro[1,1′-biphenyl]-2-yl)cyclopropane-1-carbonyl]piperidin-3-yl}methanesulfonamide and rac-N-{(3S)-1-[(1R,2R)-2-(2′,4,6′-trifluoro[1,1′-biphenyl]-2-yl)cyclopropane-1-carbonyl]piperidin-3-yl}methanesulfonamide]	56
CCS(=O)(=O)NC1CCCN(C(=O)C2CC2c2ccccc2-c2c(F)cccc2F)CC1 (racemic) [Example 112, a mixture of rac-N-{(4R)-1-[(1R,2R)-2-(2′,6′-difluoro[1,1′-biphenyl]-2-yl)cyclopropane-1-carbonyl]azepan-4-yl}ethanesulfonamide and rac-N-{(4S)-1-[(1R,2R)-2-(2′,6-difluoro[1,1′-biphenyl]-2-yl)cyclopropane-1-carbonyl]azepan-4-yl}ethanesulfonamide]	101
CN(C)S(=O)(=O)NC1CCCN(C(=O)C2CC2c2ccccc2-c2c(F)cccc2F)CC1 (racemic) [Example 114, a mixture of rac-N′-{(4R)-1-[(1R,2R)-2-(2′,6′-difluoro[1,1′-biphenyl]-2-yl)cyclopropane-1-carbonyl]azepan-4-yl}-N,N-dimethylsulfuric diamide and rac-N′-{(4S)-1-[(1R,2R)-2-(2′,6′-difluoro[1,1′-biphenyl]-2-yl)cyclopropane-1-carbonyl]azepan-4-yl}-N,N-dimethylsulfuric diamide]	102
O=C(C1CC1c1ccccc1-c1c(F)cccc1F)N1CCCC(NS(=O)(=O)C2CC2)C1 (racemic) [Example 123, a mixture of rac-N-{(3R)-1-[(1R,2R)-2-(2′,6′-difluoro[1,1′-biphenyl]-2-yl)cyclopropane-1-carbonyl]piperidin-3-yl}cyclopropanesulfonamide and rac-N-{(3S)-1-[(1R,2R)-2-(2′,6′-difluoro[1,1′-biphenyl]-2-yl)cyclopropane-1-carbonyl]piperidin-3-yl}cyclopropanesulfonamide]	100
CS(=O)(=O)NC12CC1CN(C(=O)C1CC1c1ccccc1-c1c(F)cccc1F)C2 (racemic) [Example 124, a mixture of rac-N-{(1S,5R)-3-[(1R,2R)-2-(2′,6′-difluoro[1,1′-biphenyl]-2-yl)cyclopropane-1-carbonyl]-3-azabicyclo[3.1.0]hexan-1-yl}methanesulfonamide and rac-N-{(1R,5S)-3-[(1R,2R)-2-(2′,6′-difluoro[1,1′-biphenyl]-2-yl)cyclopropane-1-carbonyl]-3-azabicyclo[3.1.0]hexan-1-yl}methanesulfonamide]	104
CS(=O)(=O)NCC1CCN1C(=O)C1CC1c1ccccc1-c1c(F)cccc1F (racemic) [Example 127, a mixture of rac-N-({(2R)-1-[(1R,2R)-2-(2′,6′-difluoro[1,1′-biphenyl]-2-yl)cyclopropane-1-carbonyl]azetidin-2-yl}methyl)methanesulfonamide and rac-N-({(2S)-1-[(1R,2R)-2-(2′,6′-difluoro[1,1′-biphenyl]-2-yl)cyclopropane-1-carbonyl]azetidin-2-yl}methyl)methanesulfonamide]	57
CS(=O)(=O)NCC1CCCN(C(=O)C2CC2c2ccccc2-c2c(F)cccc2F)C1 (racemic) [Example 128, a mixture of rac-N-({(3R)-1-[(1R,2R)-2-(2′,6′-difluoro[1,1′-biphenyl]-2-yl)cyclopropane-1-carbonyl]piperidin-3-yl}methyl)methanesulfonamide and rac-N-({(3S)-1-[(1R,2R)-2-(2′,6′-difluoro[1,1′-biphenyl]-2-yl)cyclopropane-1-carbonyl]piperidin-3-yl}methyl)methanesulfonamide]	89

Second part, the compound after the results:

OX2R agonist activity (3 μM, %) [%]	SMILES
68	CS(=O)(=O)NC1CCN(C(=O)C2CC2c2ccccc2-c2ccccc2Cl)C1 (racemic) [Example 85, a mixture of rac-N-{(3R)-1-[(1R,2R)-2-(2′-chloro[1,1′-biphenyl]-2-yl)cyclopropane-1-carbonyl]pyrrolidin-3-yl}methanesulfonamide and rac-N-{(3S)-1-[(1R,2R)-2-(2′-chloro[1,1′-biphenyl]-2-yl)cyclopropane-1-carbonyl]pyrrolidin-3-yl}methanesulfonamide]
64	Cc1cccc(C2CC2C(=O)N2CCCC(NS(C)(=O)=O)C2)c1-c1ccccc1 (racemic) [Example 89, a mixture of rac-N-{(3R)-1-[(1R,2R)-2-(6-methyl[1,1′-biphenyl]-2-yl)cyclopropane-1-carbonyl]piperidin-3-yl}methanesulfonamide and rac-N-{(3S)-1-[(1R,2R)-2-(6-methyl[1,1′-biphenyl]-2-yl)cyclopropane-1-carbonyl]piperidin-3-yl}methanesulfonamide]
61	CS(=O)(=O)NC1CCCN(C(=O)C2CC2c2c(F)cccc2-c2ccccc2)CC1 (racemic) [Example 95, a mixture of rac-N-{(4R)-1-[(1R,2R)-2-(3-fluoro[1,1′-biphenyl]-2-yl)cyclopropane-1-carbonyl]azepan-4-yl}methanesulfonamide and rac-N-{(4S)-1-[(1R,2R)-2-(3-fluoro[1,1′-biphenyl]-2-yl)cyclopropane-1-carbonyl]azepan-4-yl}methanesulfonamide]
60	CS(=O)(=O)NC1CCCN(C(=O)C2CC2c2cccc(F)c2-c2ccccc2F)C1 (racemic) [Example 105, a mixture of rac-N-{(3R)-1-[(1R,2R)-2-(2′,6-difluoro[1,1′-biphenyl]-2-yl)cyclopropane-1-carbonyl]piperidin-3-yl}methanesulfonamide and rac-N-{(3S)-1-[(1R,2R)-2-(2′,6-difluoro[1,1′-biphenyl]-2-yl)cyclopropane-1-carbonyl]piperidin-3-yl}methanesulfonamide]
63	CS(=O)(=O)NC1CCCN(C(=O)C2CC2c2cccc(F)c2-c2ccccc2F)CC1 (racemic) [Example 106, a mixture of rac-N-{(4R)-1-[(1R,2R)-2-(2′,6-difluoro[1,1′-biphenyl]-2-yl)cyclopropane-1-carbonyl]azepan-4-yl}methanesulfonamide and rac-N-{(4S)-1-[(1R,2R)-2-(2′,6-difluoro[1,1′-biphenyl]-2-yl)cyclopropane-1-carbonyl]azepan-4-yl}methanesulfonamide]
100	CN(C)S(=O)(=O)NC1CCN(C(=O)C2CC2c2ccccc2-c2c(F)cccc2F)C1 (racemic) [Example 113, a mixture of rac-N′-{(3R)-1-[(1R,2R)-2-(2′,6′-difluoro[1,1′-biphenyl]-2-yl)cyclopropane-1-carbonyl]pyrrolidin-3-yl}-N,N-dimethylsulfuric diamide and rac-N′-{(3S)-1-[(1R,2R)-2-(2′,6-difluoro[1,1′-biphenyl]-2-yl)cyclopropane-1-carbonyl]pyrrolidin-3-yl}-N,N-dimethylsulfuric diamide]
89	CS(=O)(=O)NC1CCN(C(=O)C2CC2c2c(F)cccc2-c2ccccc2Cl)C1 (racemic) [Example 126, a mixture of rac-N-{(3R)-1-[(1R,2R)-2-(2′-chloro-3-fluoro[1,1′-biphenyl]-2-yl)cyclopropane-1-carbonyl]pyrrolidin-3-yl}methanesulfonamide and rac-N-{(3S)-1-[(1R,2R)-2-(2′-chloro-3-fluoro[1,1′-biphenyl]-2-yl)cyclopropane-1-carbonyl]pyrrolidin-3-yl}methanesulfonamide]
101	CS(=O)(=O)NC1CN(C(=O)C2CC2c2ccccc2-c2c(F)cccc2F)CCC1(F)F (racemic) [Example 129, a mixture of rac-N-{(3R)-1-[(1R,2R)-2-(2′,6′-difluoro[1,1′-biphenyl]-2-yl)cyclopropane-1-carbonyl]-4,4-difluoropiperidin-3-yl}methanesulfonamide and rac-N-{(3S)-1-[(1R,2R)-2-(2′,6′-difluoro[1,1′-biphenyl]-2-yl)cyclopropane-1-carbonyl]-4,4-difluoropiperidin-3-yl}methanesulfonamide]
